Assay results reported in US20100234238A1, “METHOD FOR PROFILING KINASE INHIBITORS” (Janssen Pharmaceutica N V, priority 2006, published 2010).

Test system: tyrosine kinase activity in lysates prepared from cell lines
Experiment: PAMCHIP96 tyrosine peptide array profiling of lysates of 27 cell lines in absence or presence of MTKI
Assay type: biochemical
Details: 5 μM
Source text: PAMGENE technology using the tyrosine peptide PAMCHIP96 allows the kinetic detection of the phosphorylation of 144 tyrosine peptides spotted onto a 3-dimensional porous well of a 96-well plate (www.pamgene.com). This technology can be used to measure the activity of purified kinases and the effects of kinase inhibitors thereon. Phosphotyrosine peptides are detected using a mix of fluorescently labeled anti-phosphotyrosine antibodies. Phosphorylation of peptides can be followed in real time due to the possibility of removing the reaction mix for a few seconds during the assay by a pumping mechanism to allow CCD camera detection of phosphopeptides bound to the fluorescent antibody. These consecutive datapoints (quantified spot images) generate a kinetic curve for each individual peptide, and allow for the calculation of initial velocities and endpoints associated with each individual peptide.
Cells cultured in appropriate medium in T175 flasks, treated with compound if necessary, are harvested at 70-90% confluency.
Media is removed, cells are washed with 10 ml ice cold PBS containing 0.1 mM NaVO4 and lysed in 1 ml of M-PER buffer (PIERCE) containing phosphatase and protease inhibitors (HALT, PIERCE). Cells are collected by scraping, and centrifuged for 10 minutes at 12 000×g. Supernatant lysates are filtered through a 0.2 micrometer filter (Anotop 0.2 μm anopore filter; Whatmann). Lysates are flash frozen in liquid nitrogen and stored at −80C.
Just prior to the PAMCHIP experiment, total protein content is quantitated in the lysates and lysates are diluted to 1 mg/ml in a total volume of 200 μl, with M-PER phosphatase and protease inhibitors (HALT, PIERCE). 10 μg of total lysate (corresponding to 10 μl) will be used per well on the PAMCHIP96.
To all 200 μl lysates 10 units of benzonase (Novagen) is added and lysates are further incubated for 30 min on ice and next centrifuged for 10 minutes at 12 000×g. The supernatant is then 1:1 diluted with compound or DMSO diluted to the appropriate concentration in water, and lysates are further incubated exactly 60 min on ice. Meanwhile, a PAMCHIP96 tyrosine peptide chip (PAMGENE) is blocked with 2% BSA (filtered through a 0.2 μm anopore filter; Whatmann) using the standard setting of a PAMSTATION96 (PAMGENE).
The composition of the kinase buffer is as follows: 1×ABL buffer (NEB), 0.5 mg/ml BSA (from 10 mg/ml NEB stock), 100 μM ATP (dissolved and diluted in 1×ABL buffer), 5 μg/ml PY20-FITC (ExAlpha Biologicals, azide-free preparation). A twofold concentrated kinase buffer is prepared chilled on ice, DMSO or compound is added as appropriate, and the solution is added 1:1 to the (compound treated) ice cold lysates, and immediately applied to a tyrosine peptide PAMCHIP96. The assay is run on a PAMSTATION96 according to standard procedures: after loading of the plate, solution is pumped once onto the wells, a first exposure is read (150 mSec) and then a kinetic reading program (reading every 5 min for 150 mSec) is run for 60 min. Lysates are run in 6 technical replicates for each condition; replicates are always applied horizontally next to each other to avoid vertical strip effects of the chip.
The data (spot images) are further quantified and linked to the peptide identities using EVOLVE PAMGRID software (PAMGENE). The quantified data are then fit to a curve using CurveFitHT software (PAMGENE) using the Vinip2 curve fitting algorithm, applied on the first 30 min of the assay; the initial velocity is derived at the first kinetic time point read. All subsequent data analyses were done on initial velocities (Vini) using the software packages Omniviz and R (Ihaka, R. and Gentlemen, R. (1996) R: a language for data analysis and graphics. J. Comput. Graph. Stat., 5, 299-314).
After replacing the Vini's lower than 0.1 by 0.1, all Vini's were log 2-transformed to approach normality.

COc1cc2ncnc3c2cc1OCCCCCN(C)Cc1ccc(Br)cc1N3 [MTKI, 4,6-ethanediylidenepyrimido[4,5-b][6,1,12]benzoxadiazacyclopentadecine, 17-bromo-8,9,10,11,12,13,14,19-octahydro-20-methoxy-13-methyl-]
ratio of initial velocity of peptide phosphorylation (A431 lysate, CDK7_157_169_S164): 0.53
ratio of initial velocity of peptide phosphorylation (A431 lysate, CREB1_122_134_Y134/S133): 0.63
ratio of initial velocity of peptide phosphorylation (A431 lysate, DDR2_733_745_Y740): 0.56
ratio of initial velocity of peptide phosphorylation (A431 lysate, MK10_216_228_T221/Y223): 0.46
ratio of initial velocity of peptide phosphorylation (A431 lysate, NCF1_313_325_S315/S320): 0.57
ratio of initial velocity of peptide phosphorylation (A431 lysate, NPT2_501_513_T508): 0.53
ratio of initial velocity of peptide phosphorylation (A431 lysate, PECA1_706_718_Y713): 0.72
ratio of initial velocity of peptide phosphorylation (A431 lysate, PGFRB_768_780_Y771/Y775/Y778): 0.97
ratio of initial velocity of peptide phosphorylation (A431 lysate, PLCG1_764_776_Y771): 0.82
ratio of initial velocity of peptide phosphorylation (A431 lysate, PRRX2_202_214_Y214): 0.75
ratio of initial velocity of peptide phosphorylation (A431 lysate, RASA1_453_465_Y460): 0.62
ratio of initial velocity of peptide phosphorylation (A431 lysate, STAT2_683_695_Y690): 0.57
ratio of initial velocity of peptide phosphorylation (A431 lysate, SYN1_2_14_S9): 0.58
ratio of initial velocity of peptide phosphorylation (A431 lysate, TYRO3_679_691_Y686): 0.52
ratio of initial velocity of peptide phosphorylation (H322 lysate, CDK7_157_169_S164): 0.88
ratio of initial velocity of peptide phosphorylation (H322 lysate, CREB1_122_134_Y134/S133): 0.94
ratio of initial velocity of peptide phosphorylation (H322 lysate, DDR2_733_745_Y740): 0.85
ratio of initial velocity of peptide phosphorylation (H322 lysate, ENOG_37_49_Y43): 0.76
ratio of initial velocity of peptide phosphorylation (H322 lysate, MK10_216_228_T221/Y223): 0.76
ratio of initial velocity of peptide phosphorylation (H322 lysate, NCF1_313_325_S315/S320): 0.88
ratio of initial velocity of peptide phosphorylation (H322 lysate, NPT2_501_513_T508): 0.88
ratio of initial velocity of peptide phosphorylation (H322 lysate, PECA1_706_718_Y713): 0.73
ratio of initial velocity of peptide phosphorylation (H322 lysate, PGFRB_768_780_Y771/Y775/Y778): 0.92
ratio of initial velocity of peptide phosphorylation (H322 lysate, PLCG1_764_776_Y771): 0.79
ratio of initial velocity of peptide phosphorylation (H322 lysate, PRRX2_202_214_Y214): 0.85
ratio of initial velocity of peptide phosphorylation (H322 lysate, RASA1_453_465_Y460): 0.83
ratio of initial velocity of peptide phosphorylation (H322 lysate, STAT2_683_695_Y690): 0.89
ratio of initial velocity of peptide phosphorylation (H322 lysate, SYN1_2_14_S9): 0.91
ratio of initial velocity of peptide phosphorylation (H322 lysate, TYRO3_679_691_Y686): 0.96
ratio of initial velocity of peptide phosphorylation (H2122 lysate, CDK7_157_169_S164): 0.90
ratio of initial velocity of peptide phosphorylation (H2122 lysate, CREB1_122_134_Y134/S133): 0.85
ratio of initial velocity of peptide phosphorylation (H2122 lysate, DDR2_733_745_Y740): 0.81
ratio of initial velocity of peptide phosphorylation (H2122 lysate, ENOG_37_49_Y43): 0.71
ratio of initial velocity of peptide phosphorylation (H2122 lysate, MK10_216_228_T221/Y223): 0.79
ratio of initial velocity of peptide phosphorylation (H2122 lysate, NCF1_313_325_S315/S320): 0.94
ratio of initial velocity of peptide phosphorylation (H2122 lysate, NPT2_501_513_T508): 0.90
ratio of initial velocity of peptide phosphorylation (H2122 lysate, PECA1_706_718_Y713): 0.67
ratio of initial velocity of peptide phosphorylation (H2122 lysate, PLCG1_764_776_Y771): 0.76
ratio of initial velocity of peptide phosphorylation (H2122 lysate, PRRX2_202_214_Y214): 0.84
ratio of initial velocity of peptide phosphorylation (H2122 lysate, RASA1_453_465_Y460): 0.78
ratio of initial velocity of peptide phosphorylation (H2122 lysate, STAT2_683_695_Y690): 0.90
ratio of initial velocity of peptide phosphorylation (H2122 lysate, SYN1_2_14_S9): 0.91
ratio of initial velocity of peptide phosphorylation (H2122 lysate, TYRO3_679_691_Y686): 0.95
ratio of initial velocity of peptide phosphorylation (H3255 lysate, CDK7_157_169_S164): 0.55
ratio of initial velocity of peptide phosphorylation (H3255 lysate, CREB1_122_134_Y134/S133): 0.73
ratio of initial velocity of peptide phosphorylation (H3255 lysate, DDR2_733_745_Y740): 0.44
ratio of initial velocity of peptide phosphorylation (H3255 lysate, ENOG_37_49_Y43): 0.76
ratio of initial velocity of peptide phosphorylation (H3255 lysate, MK10_216_228_T221/Y223): 0.47
ratio of initial velocity of peptide phosphorylation (H3255 lysate, NCF1_313_325_S315/S320): 0.59
ratio of initial velocity of peptide phosphorylation (H3255 lysate, NPT2_501_513_T508): 0.68
